Drawing on ChEMBL document CHEMBL1153768, “New potential AChE inhibitor candidates” (Eur J Med Chem, 2009), this text covers IC50 and inhibition for 5 molecules.

Test [1] addresses Acetylcholinesterase (Electrophorus electricus, UniProt O42275). The test is described as follows: (§1) Inhibition of Electrophorus electricus AChE.
Test [2] concerns the target Acetylcholinesterase (Electrophorus electricus) (UniProt O42275). The test is described as §1.
For test [3] the target is unchanged. The experiment in a line: Inhibition of Electrophorus electricus AChE at 100 uM.

Chain of Acetylcholinesterase (O42275 whole entry): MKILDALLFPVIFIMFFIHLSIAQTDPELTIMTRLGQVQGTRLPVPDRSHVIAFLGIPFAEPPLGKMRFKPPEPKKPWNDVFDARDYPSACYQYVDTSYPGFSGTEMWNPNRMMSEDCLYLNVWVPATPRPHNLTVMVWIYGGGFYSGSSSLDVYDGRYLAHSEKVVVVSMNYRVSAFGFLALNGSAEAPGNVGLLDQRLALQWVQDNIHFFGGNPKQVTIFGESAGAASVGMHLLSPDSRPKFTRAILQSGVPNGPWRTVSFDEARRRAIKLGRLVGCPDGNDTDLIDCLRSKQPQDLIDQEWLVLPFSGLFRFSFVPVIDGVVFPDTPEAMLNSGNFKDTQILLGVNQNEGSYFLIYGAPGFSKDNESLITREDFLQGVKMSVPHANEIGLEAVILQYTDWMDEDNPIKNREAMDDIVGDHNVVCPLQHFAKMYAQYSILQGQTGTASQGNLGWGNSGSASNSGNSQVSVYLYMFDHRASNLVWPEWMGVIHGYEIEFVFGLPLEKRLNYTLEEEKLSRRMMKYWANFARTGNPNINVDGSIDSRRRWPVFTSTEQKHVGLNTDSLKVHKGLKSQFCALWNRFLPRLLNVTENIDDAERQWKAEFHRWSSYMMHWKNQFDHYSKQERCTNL
Chain of Acetylcholinesterase (Electrophorus electricus) (O42275 24-633 limits assumed): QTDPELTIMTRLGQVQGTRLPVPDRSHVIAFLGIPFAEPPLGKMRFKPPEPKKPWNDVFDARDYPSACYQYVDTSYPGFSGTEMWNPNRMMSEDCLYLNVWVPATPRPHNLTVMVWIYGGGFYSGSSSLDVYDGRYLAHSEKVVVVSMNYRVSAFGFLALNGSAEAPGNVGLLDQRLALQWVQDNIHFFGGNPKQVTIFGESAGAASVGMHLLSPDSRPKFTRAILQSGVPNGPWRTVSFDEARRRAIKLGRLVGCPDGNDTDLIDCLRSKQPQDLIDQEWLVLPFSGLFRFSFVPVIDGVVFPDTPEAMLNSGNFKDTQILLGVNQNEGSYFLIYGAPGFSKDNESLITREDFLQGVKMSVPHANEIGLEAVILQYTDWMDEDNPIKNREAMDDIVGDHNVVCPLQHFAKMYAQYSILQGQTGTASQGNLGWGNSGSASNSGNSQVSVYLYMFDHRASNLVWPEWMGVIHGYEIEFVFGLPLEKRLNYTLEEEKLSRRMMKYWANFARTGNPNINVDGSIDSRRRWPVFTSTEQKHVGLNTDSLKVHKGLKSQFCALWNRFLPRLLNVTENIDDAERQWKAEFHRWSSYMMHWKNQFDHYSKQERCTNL

Molecule `CCCCCCCCCCCCCCC(c1cccc(OC(=O)N(C)C)c1)N1CCCC1` (stereo not drawn) registered an IC50 in test [1] of 84.3 µM. Also, the inhibition result in test [2] was “Dose-dependent effect”. On the same counts, the results for `CCCCCCCCCCCCCCC(c1cccc(OC(=O)N(C)C)c1)N(CC)CC` (stereo not drawn) are 251 µM and “Dose-dependent effect”.

With `CCCCCCCCCCCCCCC(c1cccc(OC(=O)N(C)C)c1)N(C)C` (stereo not drawn), half-maximal inhibition in test [1] (IC50) was put at 50 µM. Besides, the inhibition entry in test [2] was “Dose-dependent effect”. `CCCCCCCCCCCCCCC(c1cccc(OC(=O)N(C)C)c1)N1CCCCC1` (stereo not drawn): the inhibition in test [3] amounted to 25%. Still for that read-out and setting: the value for `CCCCCCCCCCCCCCC(c1cccc(OC(=O)N(C)C)c1)N(C)Cc1ccccc1` (stereo not drawn) was 25%.
